This is an account of results in PMC12163635, “Synthetic Retinoids for the Modulation of Genomic and Nongenomic Processes in Neurodegenerative Diseases” (ACS Omega, 2025).

The structures appear in SMILES notation.

Common to all, as to assay: Fluorescence competition binding assay (displacement of DC271)
In assay [1] the target is T1, RARα (Homo sapiens, UniProt P10276).
T1 construct: His6-3C-NusA (cleaved yes); made in house; host or cells: E. coli BL21(DE3), pET50b vector
T1 sequence (P10276 183-417 limits assumed): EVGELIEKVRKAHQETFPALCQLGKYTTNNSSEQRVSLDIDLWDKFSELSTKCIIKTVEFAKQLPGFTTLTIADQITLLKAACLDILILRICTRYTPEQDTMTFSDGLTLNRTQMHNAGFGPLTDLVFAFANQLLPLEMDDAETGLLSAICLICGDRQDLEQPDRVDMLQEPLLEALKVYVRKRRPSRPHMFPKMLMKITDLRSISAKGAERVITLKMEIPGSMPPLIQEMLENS
To be noted: for Kd / Binding KD (± SD) RARα: 100 nM RAR and DC271 on plate; for Kd: read-out: Binding KD (± SD) RARα; for ΔGEXP RARα: experimental binding free energy from K D, ΔGexp=−RT ln K, 298.1 K. The protocol:
(§1) Fluorescence competition assays were employed to determine the relative binding affinities of each synthetic retinoid toward the LBD of the RARs. The assay is based on the potential for competitive displacement of the inherently fluorescent retinoid DC271 from the LBP by a test nonfluorescent synthetic retinoid. Changes in the fluorescence were measured following the addition of a serial dilution of the test compound and the results were plotted to generate a binding curve. […] Assays were performed for both RARα and RARγ. […] Nonlinear least-squares regression analyses were performed to calculate binding affinities and reported as binding K D, the equilibrium dissociation constant between the RAR isoform and the test synthetic retinoid.
(§2) RARα/γ proteins were expressed in BL21(DE3) cells (NEB) transformed into pET50b (Novagen) and pOPINS3C vectors, respectively, carrying the gene construct and containing a His6-3C-NusA tag or His6-3C-SUMO tag used for solubility. Transformations were carried out under standard conditions using Quick Transformation Protocol (New England Biolabs). Successful transformants were grown overnight in 2xYT media (Melford) and frozen for storage at −80 °C in 50% glycerol. Expression cultures were inoculated from glycerol stocks into 25 mL of 2xYT media (Melford) with 50 μg/mL kanamycin or 100 μg/mL ampicillin (Sigma-Aldrich) and grown overnight with shaking (37 °C, 150 rpm). The overnight cultures were transferred into 1 L expression flasks (2xYT/ampicillin 100 μg/mL or 2xYT/kanamycin 50 μg/mL) and grown with shaking at 37 °C, 150 rpm. Induction was carried out at an OD600 of 0.6–0.8, with 1 mL of 1 M IPTG (1 mM in culture), before shaking overnight (20 h) at 18 °C. The resulting cultures were spun down into pellets using an Avanti Hi-Speed centrifuge (JLA 8.1000, 4000 rpm, 30 min, 4 °C), before the supernatant was removed and the bacterial pellet were frozen at −80 °C.
(§3) RARα/γ (pET50b or pOPINS3C, BL21(DE3) (NEB)) were resuspended from pellet with 20 mL Wash Buffer (20 mM Tris-HCl, 300 mM NaCl and 20 mM imidazole, pH 8) and the resulting suspension was sonicated on ice (40% power, 2 min, repeated twice with 1 min rest in-between) before centrifuging (Avanti Hi-Speed JA25.50, 20,000 rpm, 1 h, 4 °C). Supernatants were clarified using 0.45 μm syringe filters (Thermo Fisher Scientific). Affinity chromatography and size-exclusion (SEC) chromatography were carried out on AKTA Pure25 (Cytiva). Supernatants were loaded onto the HisTrap HP column (5 mL, Cytiva) and washed using 25 mL of wash Buffer. The column was washed with Wash Buffer until UV trace returned to baseline, before RARα/γ was eluted using a gradient of Elution Buffer (20 mM Tris-HCl, 300 mM NaCl, 500 mM imidazole pH 8). The resulting protein-containing fractions were analyzed by SDS-PAGE (200 V, 30 min) using SurePAGE Bis-Tris 12% precast gels (Genscript). Protein concentrations were estimated using absorbance at 280 nm on a DS-11 spectrophotometer (Denovix) with calculated molecular weights and extinction coefficients (Expasy). RAR proteins were cleaved overnight from 3C-NusA tag or 3C-SUMO-His tag using 1 Unit/100 μg protein of HRV3C protease (Thermo Fisher Scientific) at 4 °C. Solution after digestion was loaded onto a HiLoad 16/600 Superdex 75 prep-grade column (Cytiva) and cleaved RARα/γ was separated from the tag based on molecular weight and eluted from the column using SEC Buffer (20 mM Tris-HCl, 300 mM NaCl and 0.5 mM TCEP, pH 8) into 2 mL fractions. The resulting protein fractions were analyzed by SDS PAGE (200 V, 30 min) using SurePAGE Bis-Tris 12% precast gels (Genscript), before being concentrated to 5 mg/mL using centrifugal concentrators (Sartorius) and frozen at −80 °C in small aliquots for use in binding assays.

Assay [2] relates to RARα. Details: species or system human. To be noted: log-log plot of K D for RARα and RARγ. Here is the method: as §1, §2, §3
In another assay the target is T2, RARγ (Homo sapiens, UniProt P13631).
T2 construct: His6-3C-SUMO (cleaved yes); made in house; host or cells: E. coli BL21(DE3), pOPINS3C vector
T2 sequence (P13631 185-419 limits assumed): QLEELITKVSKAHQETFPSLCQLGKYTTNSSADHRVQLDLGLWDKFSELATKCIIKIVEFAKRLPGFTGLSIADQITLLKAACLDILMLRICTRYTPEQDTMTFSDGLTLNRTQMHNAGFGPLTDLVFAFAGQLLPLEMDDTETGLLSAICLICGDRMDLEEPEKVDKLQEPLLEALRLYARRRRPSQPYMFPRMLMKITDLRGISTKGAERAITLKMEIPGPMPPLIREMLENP
The conditions noted are these: for Kd / Binding KD (± SD) RARγ: 100 nM RAR and DC271 on plate; for Kd: read-out: Binding KD (± SD) RARγ; for ΔGEXP RARγ: experimental binding free energy from K D, ΔGexp=−RT ln K, 298.1 K. The protocol: as §1, §2, §3

Sequence of RARα (P10276 182-417): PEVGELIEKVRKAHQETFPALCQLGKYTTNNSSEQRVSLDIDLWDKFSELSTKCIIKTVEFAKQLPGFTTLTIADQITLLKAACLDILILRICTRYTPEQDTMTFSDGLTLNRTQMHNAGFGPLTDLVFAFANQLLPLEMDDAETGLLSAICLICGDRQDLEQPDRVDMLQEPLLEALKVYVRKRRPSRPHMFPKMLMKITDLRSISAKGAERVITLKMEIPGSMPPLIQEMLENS

For `CC1(C)CCC(C)(C)c2cc(C#Cc3ccc(C(=O)O)c(F)c3)ccc21` [Compound 13, 2-Fluoro-4-[2-(5,5,8,8-tetramethyl-5,6,7,8-tetrahydronaphthalen-2-yl)ethynyl]benzoic Acid], on RARα [1], the Kd – broadly, the constant that tells how readily two partners part at equilibrium – worked out at 13.6 nM and the “ΔGEXP RARα” value was -10.8 kcal/mol. For the same molecule, the “binding preference RARα versus RARγ (from K D)” value in the assay on RARα [2] was “close to the plotted line representing equal binding affinity for RARα and RARγ”. On RARγ, the Kd was 18.6 nM and the “ΔGEXP RARγ” value was -10.6 kcal/mol.
With `CC1(C)CCC(C)(C)c2cc(C#Cc3ccc(C(=O)O)cc3F)ccc21` [Compound 14, 3-Fluoro-4-[2-(5,5,8,8-tetramethyl-5,6,7,8-tetrahydronaphthalen-2-yl)ethynyl]benzoic Acid], on RARα [1], the Kd turned out to be 30.9 nM and the “ΔGEXP RARα” value is -10.3 kcal/mol. The “binding preference RARα versus RARγ (from K D)” value with RARα [2] is given as “bind RARγ stronger than RARα”. For the same molecule, on RARγ, the Kd worked out at 16 nM and the “ΔGEXP RARγ” value is -10.7 kcal/mol.
`CC1(C)CCC(C)(C)c2cc(C#Cc3cc(F)c(C(=O)O)c(F)c3)ccc21` [Compound 15, 2,6-Difluoro-4-[2-(5,5,8,8-tetramethyl-5,6,7,8-tetrahydronaphthalen-2-yl)ethynyl]benzoic Acid]: at RARα [1], the Kd turned out to be 0.37 nM and the “ΔGEXP RARα” value is -13.0 kcal/mol. In addition, in the assay on RARα [2], the “binding preference RARα versus RARγ (from K D)” value is “strongly binds both RARα and RARγ”. On RARγ, the Kd amounted to 22.7 nM and the “ΔGEXP RARγ” value was -10.4 kcal/mol.
With `CC1(C)CCC(C)(C)c2cc(C#Cc3ccc(C(=O)O)cc3Cl)ccc21` [Compound 16, 3-Chloro-4-[2-(5,5,8,8-tetramethyl-5,6,7,8-tetrahydronaphthalen-2-yl)ethynyl]benzoic Acid], on RARα [1], the Kd turned out to be 73.7 nM and the “ΔGEXP RARα” value was -9.79 kcal/mol. Also, in the assay with RARα [2], the “binding preference RARα versus RARγ (from K D)” value is “bind RARγ stronger than RARα”. Moreover, on RARγ, the Kd is 24.2 nM and the “ΔGEXP RARγ” value is -10.4 kcal/mol.
Turning to `Cc1cc2c(cc1C#Cc1ccc(C(=O)O)c(F)c1)C(C)(C)CCC2(C)C` [Compound 17, 2-Fluoro-4-[2-(3,5,5,8,8-pentamethyl-5,6,7,8-tetrahydronaphthalen-2-yl)ethynyl]benzoic Acid], at RARα [1], the Kd was found to be 28.4 nM and the “ΔGEXP RARα” value is -10.40 kcal/mol. The “binding preference RARα versus RARγ (from K D)” value with RARα [2] is “close to the plotted line representing equal binding affinity for RARα and RARγ”. Besides, on RARγ, the Kd was found to be 20.6 nM and the “ΔGEXP RARγ” value is -10.5 kcal/mol.
As for `Cc1cc2c(cc1C#Cc1ccc(C(=O)O)cc1F)C(C)(C)CCC2(C)C` [Compound 18, 3-Fluoro-4-[2-(3,5,5,8,8-pentamethyl-5,6,7,8-tetrahydronaphthalen-2-yl)ethynyl]benzoic Acid], at RARα [1], the equilibrium dissociation constant (Kd) was determined as 18.1 nM and the “ΔGEXP RARα” value is -10.6 kcal/mol. The “binding preference RARα versus RARγ (from K D)” value in the assay on RARα [2] is “close to the plotted line representing equal binding affinity for RARα and RARγ”. Besides, on RARγ, the Kd amounted to 18.6 nM and the “ΔGEXP RARγ” value is -10.6 kcal/mol.
With `Cc1cc2c(cc1C#Cc1cc(F)c(C(=O)O)c(F)c1)C(C)(C)CCC2(C)C` [Compound 19, 2,6-Difluoro-4-[2-(3,5,5,8,8-pentamethyl-5,6,7,8-tetrahydronaphthalen-2-yl)ethynyl]benzoic Acid], on RARα [1], the Kd came to 5.72 nM and the “ΔGEXP RARα” value was -11.3 kcal/mol. Moreover, in the assay with RARα [2], the “binding preference RARα versus RARγ (from K D)” value is reported as “bind RARα preferentially over RARγ”. Besides, on RARγ, the Kd stood at 33.7 nM and the “ΔGEXP RARγ” value is -10.2 kcal/mol.
Taken in the same sequence, the figures for `COc1cc2c(cc1C#Cc1cc(F)c(C(=O)O)c(F)c1)C(C)(C)CCC2(C)C` [Compound 22, 2,6-Difluoro-4-[2-(3-methoxy-5,5,8,8-tetramethyl-5,6,7,8-tetrahydronaphthalen-2-yl)ethynyl]benzoic Acid] were 105 nM, -9.55 kcal/mol, “bind RARα preferentially over RARγ”, 355 nM and -8.81 kcal/mol.
In the case of `CC1(C)CCC(C)(C)c2cc(C#Cc3ccc(C(=O)O)cn3)ccc21` [Compound 23, 6-[2-(5,5,8,8-Tetramethyl-5,6,7,8-tetrahydronaphthalen-2-yl)ethynyl]pyridine-3-carboxylic Acid], on RARα [1], the Kd was 15.8 nM and the “ΔGEXP RARα” value is -10.7 kcal/mol. In addition, the “binding preference RARα versus RARγ (from K D)” value in the assay on RARα [2] was “close to the plotted line representing equal binding affinity for RARα and RARγ”. Also, on RARγ, the equilibrium dissociation constant (Kd) was determined as 24.3 nM and the “ΔGEXP RARγ” value is -10.4 kcal/mol.
On to `CC1(C)CCC(C)(C)c2cc(C#Cc3cnc(C(=O)O)cn3)ccc21` [Compound 25, 5-[2-(5,5,8,8-Tetramethyl-5,6,7,8-tetrahydronaphthalen-2-yl)ethynyl]pyrazine-2-carboxylic Acid], for which, on RARα [1], the Kd came out at 927 nM and the “ΔGEXP RARα” value is -8.23 kcal/mol. On RARγ, the “Binding KD (± SD) RARγ” value was “noncompetitive binding” and the “ΔGEXP RARγ” value was “Non-competitive Binding”.
For `COc1cc2c(cc1C#Cc1ncc(C(=O)O)cn1)C(C)(C)CCC2(C)C` [Compound 29, 2-[2-(3-Methoxy-5,5,8,8-tetramethyl-5,6,7,8-tetrahydronaphthalen-2-yl)ethynyl]pyrimidine-5-carboxylic Acid], on RARα [1], the “Binding KD (± SD) RARα” value is “noncompetitive binding” and the “ΔGEXP RARα” value is given as “Non-competitive Binding”. For the same molecule, on RARγ, the “Binding KD (± SD) RARγ” value is “noncompetitive binding” and the “ΔGEXP RARγ” value is “Non-competitive Binding”.
With `Cc1sc(-c2ccc(C(=O)O)cn2)nc1-c1cnc2c(n1)C(C)(C)CCC2(C)C` [Compound 41, 6-[5-Methyl-4-(5,5,8,8-tetramethyl-5,6,7,8-tetrahydroquinoxalin-2-yl)-1,3-thiazol-2-yl]pyridine-3-carboxylic Acid], on RARα [1], the “Binding KD (± SD) RARα” value is recorded as “noncompetitive binding” and the “ΔGEXP RARα” value is recorded as “Non-competitive Binding”. Also, at RARγ, the “Binding KD (± SD) RARγ” value is listed as “noncompetitive binding” and the “ΔGEXP RARγ” value is given as “Non-competitive Binding”.
Turning to `Cc1sc(-c2ccc(C(=O)O)cc2)nc1-c1ccc2c(c1)C(C)(C)CCC2(C)C` [GZ25, reference compound], on RARα [1], the Kd was 688 nM and the “ΔGEXP RARα” value was -7.92 kcal/mol. Also, at RARγ, the Kd amounted to 335 nM and the “ΔGEXP RARγ” value was -8.84 kcal/mol.
